{
  "source": "ChEMBL document CHEMBL5465560",
  "about": "“Selectivity Literature for EUbOPEN Chemogenomic Library” (2024)",
  "key": {"[1]": {"target": "Dual specificity protein kinase CLK3 (Homo sapiens, UniProt P49761)", "sequence (P49761 whole entry, looked up)": "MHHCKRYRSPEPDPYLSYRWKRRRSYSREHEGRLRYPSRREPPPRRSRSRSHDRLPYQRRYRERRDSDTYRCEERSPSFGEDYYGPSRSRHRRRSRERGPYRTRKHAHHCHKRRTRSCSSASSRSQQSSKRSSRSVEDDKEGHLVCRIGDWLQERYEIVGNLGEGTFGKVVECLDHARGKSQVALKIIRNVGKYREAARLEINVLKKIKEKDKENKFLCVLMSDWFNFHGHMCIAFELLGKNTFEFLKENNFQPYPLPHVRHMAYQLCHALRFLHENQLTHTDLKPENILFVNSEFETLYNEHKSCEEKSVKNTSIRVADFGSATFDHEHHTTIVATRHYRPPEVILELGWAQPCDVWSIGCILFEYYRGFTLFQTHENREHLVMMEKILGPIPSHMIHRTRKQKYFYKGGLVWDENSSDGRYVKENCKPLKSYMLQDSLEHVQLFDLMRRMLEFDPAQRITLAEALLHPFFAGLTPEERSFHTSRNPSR", "details": "at 10 µM"}, "[2]": {"target": "High affinity nerve growth factor receptor (Homo sapiens, UniProt P04629)", "sequence (P04629 33-796 limits assumed)": "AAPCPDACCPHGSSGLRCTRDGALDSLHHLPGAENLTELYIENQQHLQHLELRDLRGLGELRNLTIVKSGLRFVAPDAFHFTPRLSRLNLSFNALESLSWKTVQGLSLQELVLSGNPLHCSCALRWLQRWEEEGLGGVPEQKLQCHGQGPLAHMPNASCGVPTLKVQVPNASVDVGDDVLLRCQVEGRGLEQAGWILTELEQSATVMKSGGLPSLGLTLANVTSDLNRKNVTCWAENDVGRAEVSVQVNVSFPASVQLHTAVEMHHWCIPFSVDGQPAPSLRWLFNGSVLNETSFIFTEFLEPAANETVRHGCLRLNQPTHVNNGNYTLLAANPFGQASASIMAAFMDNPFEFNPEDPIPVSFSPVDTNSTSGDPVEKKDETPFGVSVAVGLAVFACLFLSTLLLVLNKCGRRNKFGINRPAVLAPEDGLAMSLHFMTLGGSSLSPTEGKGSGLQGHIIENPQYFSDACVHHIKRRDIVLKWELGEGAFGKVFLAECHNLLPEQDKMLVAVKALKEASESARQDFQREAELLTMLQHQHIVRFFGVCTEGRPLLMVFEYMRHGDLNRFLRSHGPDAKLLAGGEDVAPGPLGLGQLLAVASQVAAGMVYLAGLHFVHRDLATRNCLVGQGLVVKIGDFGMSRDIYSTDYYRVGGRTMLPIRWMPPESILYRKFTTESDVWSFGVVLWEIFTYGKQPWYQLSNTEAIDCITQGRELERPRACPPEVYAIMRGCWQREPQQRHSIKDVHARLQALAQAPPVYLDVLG", "assay": "Selectivity interaction (Millipore kinase profiler) EUB0000124b NTRK1", "details": "at 10 µM"}, "[3]": {"target": "Protein kinase C eta type (Homo sapiens) (UniProt P24723)", "sequence (P24723 whole entry)": "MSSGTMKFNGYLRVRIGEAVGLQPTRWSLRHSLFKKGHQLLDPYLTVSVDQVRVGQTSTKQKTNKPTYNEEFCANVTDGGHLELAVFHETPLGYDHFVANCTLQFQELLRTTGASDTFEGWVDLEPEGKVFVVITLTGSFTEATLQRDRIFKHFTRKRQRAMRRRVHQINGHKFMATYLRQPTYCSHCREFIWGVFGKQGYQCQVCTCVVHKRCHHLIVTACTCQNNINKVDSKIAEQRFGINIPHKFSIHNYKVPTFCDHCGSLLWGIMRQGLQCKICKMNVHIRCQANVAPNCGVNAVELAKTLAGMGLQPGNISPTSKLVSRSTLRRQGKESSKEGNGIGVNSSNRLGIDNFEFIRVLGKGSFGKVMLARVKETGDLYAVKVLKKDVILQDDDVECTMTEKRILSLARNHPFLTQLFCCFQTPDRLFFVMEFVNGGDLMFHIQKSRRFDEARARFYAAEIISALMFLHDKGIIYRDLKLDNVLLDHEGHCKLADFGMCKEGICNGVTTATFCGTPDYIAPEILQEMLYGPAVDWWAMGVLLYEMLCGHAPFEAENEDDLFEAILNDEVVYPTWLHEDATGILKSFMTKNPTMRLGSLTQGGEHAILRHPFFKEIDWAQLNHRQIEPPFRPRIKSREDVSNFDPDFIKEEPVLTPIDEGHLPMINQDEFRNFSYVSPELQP", "assay": "Selectivity interaction (Ambit KINOMEscan and KiNATiv profiling in Jurkat cells) EUB0000090b PRKCH", "format": "cell-based", "details": "at 1 µM"}, "[4]": {"target": "Tyrosine-protein kinase Fyn (Homo sapiens) (UniProt P06241)", "assay": "Selectivity interaction (ActivX KiNativ screen (kinase selectivity in THP-1 cell lysates)) EUB0000639a FYN", "format": "subcellular", "details": "lysate, at 0.2 µM"}, "[5]": {"target": "Histone-lysine N-methyltransferase, H3 lysine-36 specific (Homo sapiens) (UniProt Q96L73)", "sequence (Q96L73 whole entry)": "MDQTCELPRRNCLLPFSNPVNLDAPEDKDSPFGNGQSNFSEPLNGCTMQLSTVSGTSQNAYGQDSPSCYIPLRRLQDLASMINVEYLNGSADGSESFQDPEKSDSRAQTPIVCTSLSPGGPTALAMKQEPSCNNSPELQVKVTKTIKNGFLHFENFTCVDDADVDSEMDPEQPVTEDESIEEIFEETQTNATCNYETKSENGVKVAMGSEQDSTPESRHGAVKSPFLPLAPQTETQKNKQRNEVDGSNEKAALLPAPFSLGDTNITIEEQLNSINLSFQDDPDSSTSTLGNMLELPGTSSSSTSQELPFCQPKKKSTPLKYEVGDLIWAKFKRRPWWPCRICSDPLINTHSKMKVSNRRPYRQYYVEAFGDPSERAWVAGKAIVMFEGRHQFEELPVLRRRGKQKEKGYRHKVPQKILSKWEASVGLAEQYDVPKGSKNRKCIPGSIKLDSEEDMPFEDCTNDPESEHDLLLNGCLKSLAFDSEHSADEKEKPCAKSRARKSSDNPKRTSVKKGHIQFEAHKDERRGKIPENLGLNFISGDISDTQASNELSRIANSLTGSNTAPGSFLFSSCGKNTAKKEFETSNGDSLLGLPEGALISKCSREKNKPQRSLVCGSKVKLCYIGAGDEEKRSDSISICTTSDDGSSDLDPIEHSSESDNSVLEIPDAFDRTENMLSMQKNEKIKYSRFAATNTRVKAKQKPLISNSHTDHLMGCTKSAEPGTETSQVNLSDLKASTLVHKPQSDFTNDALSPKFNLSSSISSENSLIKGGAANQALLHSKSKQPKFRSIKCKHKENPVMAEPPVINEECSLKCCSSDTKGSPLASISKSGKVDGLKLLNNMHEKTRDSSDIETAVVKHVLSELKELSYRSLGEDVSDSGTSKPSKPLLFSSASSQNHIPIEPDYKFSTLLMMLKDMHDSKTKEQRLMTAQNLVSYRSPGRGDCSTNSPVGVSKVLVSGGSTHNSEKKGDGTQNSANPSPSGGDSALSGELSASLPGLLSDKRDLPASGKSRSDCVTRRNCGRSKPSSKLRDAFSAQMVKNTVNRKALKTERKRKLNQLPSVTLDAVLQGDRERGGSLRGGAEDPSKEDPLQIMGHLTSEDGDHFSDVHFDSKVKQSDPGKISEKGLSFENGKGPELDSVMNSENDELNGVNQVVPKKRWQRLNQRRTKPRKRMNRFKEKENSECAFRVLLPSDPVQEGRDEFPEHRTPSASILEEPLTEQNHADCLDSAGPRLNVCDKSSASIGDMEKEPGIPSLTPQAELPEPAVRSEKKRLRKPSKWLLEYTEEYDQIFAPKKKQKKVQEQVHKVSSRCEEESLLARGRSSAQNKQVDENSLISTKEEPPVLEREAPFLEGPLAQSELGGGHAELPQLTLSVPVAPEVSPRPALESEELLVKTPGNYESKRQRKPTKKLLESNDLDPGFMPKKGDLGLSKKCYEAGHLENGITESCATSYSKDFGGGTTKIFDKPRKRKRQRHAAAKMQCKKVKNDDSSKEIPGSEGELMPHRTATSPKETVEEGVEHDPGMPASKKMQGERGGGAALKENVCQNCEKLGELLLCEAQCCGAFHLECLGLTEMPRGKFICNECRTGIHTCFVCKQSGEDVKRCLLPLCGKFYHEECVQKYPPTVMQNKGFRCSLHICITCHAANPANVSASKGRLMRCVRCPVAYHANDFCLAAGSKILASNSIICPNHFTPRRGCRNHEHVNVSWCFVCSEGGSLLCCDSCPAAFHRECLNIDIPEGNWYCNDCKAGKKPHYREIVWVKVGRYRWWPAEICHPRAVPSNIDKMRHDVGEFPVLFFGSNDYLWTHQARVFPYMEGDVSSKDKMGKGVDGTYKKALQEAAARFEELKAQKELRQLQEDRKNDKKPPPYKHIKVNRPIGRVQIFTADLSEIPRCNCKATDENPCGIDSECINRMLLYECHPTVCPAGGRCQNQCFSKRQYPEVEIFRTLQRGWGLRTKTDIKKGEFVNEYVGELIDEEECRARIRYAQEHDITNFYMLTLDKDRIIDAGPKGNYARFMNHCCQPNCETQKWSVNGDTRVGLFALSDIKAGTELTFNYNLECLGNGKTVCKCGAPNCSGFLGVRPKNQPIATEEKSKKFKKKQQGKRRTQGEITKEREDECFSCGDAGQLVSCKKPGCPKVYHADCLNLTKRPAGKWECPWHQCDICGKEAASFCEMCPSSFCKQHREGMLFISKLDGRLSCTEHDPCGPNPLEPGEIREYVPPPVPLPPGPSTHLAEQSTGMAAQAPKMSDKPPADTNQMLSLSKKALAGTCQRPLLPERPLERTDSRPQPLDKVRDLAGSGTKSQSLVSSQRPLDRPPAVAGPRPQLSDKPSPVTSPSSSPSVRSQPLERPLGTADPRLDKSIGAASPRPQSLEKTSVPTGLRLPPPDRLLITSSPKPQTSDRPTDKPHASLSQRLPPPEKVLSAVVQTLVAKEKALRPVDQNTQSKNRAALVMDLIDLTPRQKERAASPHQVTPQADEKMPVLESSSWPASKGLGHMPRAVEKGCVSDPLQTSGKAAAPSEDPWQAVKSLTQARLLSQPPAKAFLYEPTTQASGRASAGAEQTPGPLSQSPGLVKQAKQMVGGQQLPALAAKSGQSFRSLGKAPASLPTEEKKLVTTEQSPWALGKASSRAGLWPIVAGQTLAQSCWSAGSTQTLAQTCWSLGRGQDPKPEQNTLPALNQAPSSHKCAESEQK", "assay": "Selectivity interaction (Transferase panel (protein, RNA, and DNA methyltransferases. and EP300 (acetyltransferase))) EUB0000270b NSD1"}, "[6]": {"target": "Serine/threonine-protein kinase PAK 4 (Homo sapiens, UniProt O96013)", "assay": "Selectivity interaction (Kinase panel (Z-LYTE Assay)) EUB0001632a PAK4", "details": "at 10 µM"}, "[7]": {"target": "Homeodomain-interacting protein kinase 2 (Homo sapiens, UniProt Q9H2X6)", "assay": "Selectivity interaction (KinomeScan (DiscoverX)) EUB0000229b HIPK2", "details": "at 10 µM"}, "[8]": {"target": "T1, Inhibitor of nuclear factor kappa-B kinase subunit alpha (Homo sapiens) (UniProt O15111)", "T1 sequence (whole entry)": "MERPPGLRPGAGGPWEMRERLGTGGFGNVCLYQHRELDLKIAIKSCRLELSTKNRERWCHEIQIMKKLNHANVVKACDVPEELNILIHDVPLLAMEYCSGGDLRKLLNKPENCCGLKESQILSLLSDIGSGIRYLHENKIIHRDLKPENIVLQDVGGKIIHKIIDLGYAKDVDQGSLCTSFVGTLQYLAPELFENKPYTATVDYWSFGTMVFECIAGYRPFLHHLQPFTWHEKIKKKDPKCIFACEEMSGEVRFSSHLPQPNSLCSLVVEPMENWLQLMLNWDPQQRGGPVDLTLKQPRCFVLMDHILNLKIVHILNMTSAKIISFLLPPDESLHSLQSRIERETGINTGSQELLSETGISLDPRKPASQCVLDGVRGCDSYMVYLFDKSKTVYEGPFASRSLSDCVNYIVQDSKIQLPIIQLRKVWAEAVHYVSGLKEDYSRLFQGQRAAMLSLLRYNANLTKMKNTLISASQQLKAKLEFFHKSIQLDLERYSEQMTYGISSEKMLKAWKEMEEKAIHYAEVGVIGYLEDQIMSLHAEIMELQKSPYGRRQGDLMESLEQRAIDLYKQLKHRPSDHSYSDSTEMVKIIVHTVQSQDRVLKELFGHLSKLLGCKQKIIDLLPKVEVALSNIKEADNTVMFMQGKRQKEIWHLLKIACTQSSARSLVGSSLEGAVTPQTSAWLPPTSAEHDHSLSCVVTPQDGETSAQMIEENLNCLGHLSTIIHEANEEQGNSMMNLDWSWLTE", "details": "at 1 µM"}, "[9]": {"target": "T2, Serine/threonine-protein kinase Sgk3 (Homo sapiens) (UniProt Q96BR1)", "T2 sequence (whole entry)": "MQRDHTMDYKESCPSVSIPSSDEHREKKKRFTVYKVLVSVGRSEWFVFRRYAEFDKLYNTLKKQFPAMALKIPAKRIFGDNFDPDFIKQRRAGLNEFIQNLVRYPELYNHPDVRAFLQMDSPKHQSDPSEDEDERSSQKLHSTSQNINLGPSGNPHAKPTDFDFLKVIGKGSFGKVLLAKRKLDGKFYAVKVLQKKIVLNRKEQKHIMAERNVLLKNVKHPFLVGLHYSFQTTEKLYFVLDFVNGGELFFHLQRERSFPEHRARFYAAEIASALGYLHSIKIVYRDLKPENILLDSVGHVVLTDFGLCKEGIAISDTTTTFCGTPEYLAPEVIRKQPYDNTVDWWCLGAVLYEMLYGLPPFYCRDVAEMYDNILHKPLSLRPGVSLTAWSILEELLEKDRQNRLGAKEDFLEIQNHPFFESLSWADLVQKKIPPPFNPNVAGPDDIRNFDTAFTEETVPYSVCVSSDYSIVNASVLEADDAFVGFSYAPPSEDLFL", "assay": "Selectivity interaction (ActivX KiNativ screen (ex vivo kinase selectivity in human PBMCs)) EUB0001619a SGK3", "format": "cell-based", "details": "PBMC, at 1 µM"}, "[10]": {"target": "T3, Tyrosine-protein kinase Mer (Homo sapiens) (UniProt Q12866)", "T3 sequence (whole entry)": "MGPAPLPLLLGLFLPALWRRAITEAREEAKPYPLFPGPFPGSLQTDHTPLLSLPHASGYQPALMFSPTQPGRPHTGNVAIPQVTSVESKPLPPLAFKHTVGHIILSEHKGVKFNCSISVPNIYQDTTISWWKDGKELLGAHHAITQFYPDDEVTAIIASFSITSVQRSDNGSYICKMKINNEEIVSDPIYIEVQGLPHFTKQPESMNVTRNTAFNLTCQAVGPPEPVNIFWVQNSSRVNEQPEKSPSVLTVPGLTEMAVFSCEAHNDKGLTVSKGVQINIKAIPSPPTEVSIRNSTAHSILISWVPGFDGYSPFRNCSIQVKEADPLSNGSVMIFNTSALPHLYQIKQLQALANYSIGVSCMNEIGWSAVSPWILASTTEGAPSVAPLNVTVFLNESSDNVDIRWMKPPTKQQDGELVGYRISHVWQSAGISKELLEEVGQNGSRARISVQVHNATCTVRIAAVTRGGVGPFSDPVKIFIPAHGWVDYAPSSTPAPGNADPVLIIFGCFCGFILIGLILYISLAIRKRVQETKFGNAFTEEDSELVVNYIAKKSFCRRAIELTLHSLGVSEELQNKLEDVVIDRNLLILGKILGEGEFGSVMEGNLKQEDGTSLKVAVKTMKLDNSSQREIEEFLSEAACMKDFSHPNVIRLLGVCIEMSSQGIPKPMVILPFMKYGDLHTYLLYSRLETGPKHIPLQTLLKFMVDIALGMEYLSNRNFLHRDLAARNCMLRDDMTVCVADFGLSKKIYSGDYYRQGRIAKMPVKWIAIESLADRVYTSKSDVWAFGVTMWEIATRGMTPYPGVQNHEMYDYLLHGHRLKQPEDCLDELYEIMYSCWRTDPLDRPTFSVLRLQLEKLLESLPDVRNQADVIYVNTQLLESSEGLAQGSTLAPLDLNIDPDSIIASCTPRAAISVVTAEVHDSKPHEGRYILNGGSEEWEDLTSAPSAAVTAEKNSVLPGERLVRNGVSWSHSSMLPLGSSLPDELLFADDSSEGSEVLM", "assay": "Selectivity interaction (SelectScreen profiling (Invitrogen)) EUB0000607a MERTK", "details": "at 2 µM"}, "Aurora kinase B": {"target": "Aurora kinase B (Homo sapiens, UniProt Q96GD4)", "sequence (Q96GD4 whole entry)": "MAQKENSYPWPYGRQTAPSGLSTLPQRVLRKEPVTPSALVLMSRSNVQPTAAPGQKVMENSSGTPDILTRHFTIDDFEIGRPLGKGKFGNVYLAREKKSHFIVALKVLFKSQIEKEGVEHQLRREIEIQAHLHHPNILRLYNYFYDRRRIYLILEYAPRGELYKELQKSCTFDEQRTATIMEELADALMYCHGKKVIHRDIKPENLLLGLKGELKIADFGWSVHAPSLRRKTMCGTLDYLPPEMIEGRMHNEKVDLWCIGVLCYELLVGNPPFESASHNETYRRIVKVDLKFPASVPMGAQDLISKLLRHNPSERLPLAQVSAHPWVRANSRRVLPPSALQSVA", "assay": "Selectivity interaction (Kinase panel (DSF assay)) EUB0001558a AURKB"}},
  "data": [
    {"smiles": "Cc1cc([C@@H](C)Nc2ccccc2C(=O)O)c2nc(N3CCOCC3)cc(=O)n2c1", "note": "[AZD-6482]", "values": [
      {"measurement": "% of control", "setting": "[1]", "value": 100, "unit": "%"}
    ]},
    {"smiles": "CC(=O)Nc1cccc(-n2c(=O)n(C3CC3)c(=O)c3c(Nc4ccc(I)cc4F)n(C)c(=O)c(C)c32)c1", "values": [
      {"measurement": "% of control", "setting": "[2]", "value": 59, "unit": "%"}
    ]},
    {"smiles": "CN(C)C/C=C/C(=O)Nc1ccc(C(=O)N2CCCC(Nc3ncc(Cl)c(-c4c[nH]c5ccccc45)n3)C2)cc1", "note": "(configuration not stated)", "values": [
      {"measurement": "% of control", "setting": "[3]", "value": 91, "unit": "%"}
    ]},
    {"smiles": "CC[C@@H]1[C@H](F)C(=O)N[C@@H]1COc1nccc2cc(C(N)=O)c(OC)cc12", "note": "[ZIMLOVISERTIB]", "values": [
      {"measurement": "% of inhibition", "setting": "[4]", "value": 0.7, "unit": "%"}
    ]},
    {"smiles": "Cc1cc(CN)cc(C)c1-c1ncn(C)c1-c1cncn1C", "values": [
      {"measurement": "% activity", "setting": "[5]; at 1 µM", "value": "> 90", "unit": "%"},
      {"measurement": "% activity", "setting": "[5]; at 10 µM", "value": "> 80", "unit": "%"}
    ]},
    {"smiles": "Cn1cc(-n2cnc3c(NCc4nc5cc(Cl)c(Cl)cc5[nH]4)nc(N4CCOCC4)nc32)cn1", "values": [
      {"measurement": "% of control", "setting": "[6]", "value": 7.15, "unit": "%"}
    ]},
    {"smiles": "COc1cc(N(C)c2ccnc3ccc(C(F)(F)F)cc23)cc(OC)c1OC", "values": [
      {"measurement": "% binding", "setting": "[7]", "value": 100, "unit": "%"}
    ]},
    {"smiles": "Cc1ccc(-c2ccc3c(ccc4sc5c(c43)NC[C@@H](C)NC5=O)n2)cn1", "values": [
      {"measurement": "% of inhibition", "setting": "[8]", "value": -5, "unit": "%"}
    ]},
    {"smiles": "N#Cc1cccc(-c2c[nH]c3ncnc(N4CCOCC4)c23)c1", "values": [
      {"measurement": "% of inhibition", "setting": "[9]", "value": -1, "unit": "%"}
    ]},
    {"smiles": "CNC(=O)Nc1ccc(-c2nc(N3CC4CCC(C3)O4)c3cnn(C4CCC5(CC4)OCCO5)c3n2)cc1", "values": [
      {"measurement": "% of inhibition", "setting": "[10]", "value": 1, "unit": "%"}
    ]},
    {"smiles": "CC(C)(O)[C@H](F)CN1Cc2cc(NC(=O)c3cnn4cccnc34)c(N3CCOCC3)cc2C1=O", "values": [
      {"measurement": "dTM", "setting": "Aurora kinase B", "value": 0.5, "unit": "K"}
    ]}
  ]
}
